Several values for one entry are separate records, joined by “and”; a condition that tells them apart may be missing. Equal values may be shown once.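 Protocol summary: plate cells (96-well), add compound at 5 concentrations, incubate 48 h, interpolate endpoints linearly. Here, GI50 denotes the concentration required for 50% inhibition of growth. The concentration for full growth arrest is given as TGI.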 A value given as a limit tells only on which side of the number the result lay.

This passage reports TGI and GI50 results from PubChem BioAssay (NCI).

Test systems include CCRF-CEM leukemia; HL-60(TB) leukemia; HOP-62 NSCLC; HT29 colon; NCI-H23 lung; NCI-H522 lung; SNB-75 CNS; SK-MEL-28 melanoma; MDA-MB-231 breast.
Experiment in all cases: inhibition of tumour cell growth, NCI panel, 48 h

Regarding `COC(=O)CCC12CCC(=O)C1[C@@H](C(=O)OC)C[C@H]2C(=O)OC` (stereo not given in full), the TGI in the assay with CCRF-CEM leukemia, with HL-60(TB) leukemia, in the assay on HOP-62 NSCLC, in the assay with HT29 colon, with NCI-H23 lung and with NCI-H522 lung was above 100 µM throughout. For the same compound, in the assay with SNB-75 CNS, the TGI is above 100 µM.

Turning to `Cc1c2c(cc3c1C(=O)C(=O)C1=C3OC[C@@H]1C)C(C)(C)CCC2`, the TGI in the assay with CCRF-CEM leukemia amounted to 42 µM; in the assay with HL-60(TB) leukemia it was 26.9 µM; in the assay with HOP-62 NSCLC, 36.4 µM; with HT29 colon, 32.5 µM; with NCI-H23 lung, 28.4 µM; in the assay with SK-MEL-28 melanoma it was 27.3 µM. The same compound returned a TGI with SNB-75 CNS of 41.9 µM.

Consider `O=C1C(=O)N(c2ccc(Cl)cc2)C(=O)C(=O)C1c1nc2ccccc2s1`, for which the TGI in the assay with HOP-62 NSCLC, with HT29 colon, in the assay on NCI-H23 lung, with NCI-H522 lung, in the assay on SK-MEL-28 melanoma and with SNB-75 CNS was above 100 µM in each case.

Take `COc1ccc(-c2cc(C(=O)Nc3cc(C(F)(F)F)cc(C(F)(F)F)c3)c3ccccc3n2)cc1`: the TGI with CCRF-CEM leukemia was above 100 µM; with HL-60(TB) leukemia it was above 100 µM; in the assay with HOP-62 NSCLC, 30.3 µM; with HT29 colon, 36.1 µM; in the assay on NCI-H23 lung it was 19.2 µM; in the assay with SK-MEL-28 melanoma, 73.9 µM. The compound also displayed a TGI with SNB-75 CNS of 29.6 µM.

For `Cc1ccc(Oc2ccccc2N)cc1`, the TGI in the assay on CCRF-CEM leukemia is above 100 µM; in the assay with HL-60(TB) leukemia, 45 µM; in the assay with HOP-62 NSCLC it was above 100 µM; in the assay on HT29 colon it was above 100 µM; with NCI-H23 lung, above 100 µM; in the assay on SK-MEL-28 melanoma it was 80.2 µM. This compound had a TGI in the assay on SNB-75 CNS of 60.6 µM.

As for `Clc1cccc(N2CCN(CCCN3CCc4c([nH]c5ccccc45)C3c3cccnc3)CC2)c1` (stereo not given), the GI50 was 11.9 µM with CCRF-CEM leukemia, 4.63 µM in the assay on HL-60(TB) leukemia, 3.18 µM with HT29 colon and 5.58 µM in the assay on SK-MEL-28 melanoma. The TGI in the assay on CCRF-CEM leukemia is above 100 µM; with HL-60(TB) leukemia, above 100 µM; in the assay on HOP-62 NSCLC, 32.7 µM; in the assay on HT29 colon, 14.2 µM; in the assay on NCI-H23 lung, 27 µM; with NCI-H522 lung, 25.7 µM. Besides, the figures for the TGI in the assay with SK-MEL-28 melanoma and in the assay with SNB-75 CNS were 20.4 µM and 26.7 µM, respectively.

`[O-]c1ccccc1C=Nc1ccc2c(c1)CCC2.[O-]c1ccccc1C=Nc1ccc2c(c1)CCC2.[O]=[U+2]=[O]`: the GI50 with CCRF-CEM leukemia was 8.39 µM; in the assay with HL-60(TB) leukemia it was 9.43 µM; in the assay with HOP-62 NSCLC, above 100 µM; with HT29 colon, above 100 µM; in the assay with NCI-H23 lung, above 100 µM; with NCI-H522 lung it was above 100 µM. Moreover, the GI50 in the assay with SK-MEL-28 melanoma was above 100 µM; in the assay with SNB-75 CNS, 82.7 µM. For the same compound, the TGI in the assay with CCRF-CEM leukemia, in the assay on HL-60(TB) leukemia, in the assay on HOP-62 NSCLC, with HT29 colon, with NCI-H23 lung and with NCI-H522 lung was above 100 µM in each case. The TGI in the assay with SK-MEL-28 melanoma and with SNB-75 CNS was above 100 µM throughout.

For the compound `CSc1ncc(Br)c(Sc2nc(N)nc3nc[nH]c23)n1`, the GI50 with CCRF-CEM leukemia was 2.38 µM; with HL-60(TB) leukemia it was 4.34 µM; with HOP-62 NSCLC, 2.59 µM; in the assay on HT29 colon it was 4.09 µM; in the assay on MDA-MB-231 breast, 2.39 µM; in the assay with NCI-H23 lung, 3.74 µM. The GI50 in the assay on NCI-H522 lung is 3.97 µM; in the assay with SK-MEL-28 melanoma, 6.63 µM; with SNB-75 CNS, 2.82 µM. In addition, the TGI in the assay on CCRF-CEM leukemia was 9.3 µM; in the assay on HL-60(TB) leukemia, 27.3 µM; in the assay with HOP-62 NSCLC, above 100 µM; in the assay with HT29 colon, 60.5 µM; in the assay with MDA-MB-231 breast, 58.3 µM; in the assay on NCI-H23 lung it was above 100 µM. Also, the TGI was determined as 20.3 µM in the assay with NCI-H522 lung, 53 µM in the assay on SK-MEL-28 melanoma and 81.4 µM in the assay on SNB-75 CNS.

Take `NNc1cnn(-c2ccccc2)c(=O)c1Cl`: the TGI in the assay on CCRF-CEM leukemia, in the assay with HL-60(TB) leukemia, in the assay on HOP-62 NSCLC, in the assay with HT29 colon, in the assay with NCI-H23 lung and in the assay with NCI-H522 lung was above 100 µM throughout. Moreover, the TGI in the assay on SK-MEL-28 melanoma and in the assay on SNB-75 CNS was above 100 µM in each case.

As for `Cc1c(C(=O)/C=C/C=C/c2ccccc2)[n+](=O)c2ccccc2n1[O-]`, the TGI in the assay with CCRF-CEM leukemia was above 100 µM; in the assay with HL-60(TB) leukemia it was above 100 µM; with HOP-62 NSCLC, 54.5 µM; in the assay on NCI-H23 lung, 51.4 µM; in the assay with NCI-H522 lung it was 32 µM; in the assay on SK-MEL-28 melanoma, 54.6 µM. In the assay on SNB-75 CNS, this compound displayed a TGI above 100 µM.

As to `Cc1cc(Nc2nc(C(=O)Nc3ccccc3)nc3ccccc23)n[nH]1`, the GI50 in the assay on CCRF-CEM leukemia is 4 µM; in the assay with HL-60(TB) leukemia, 5.9 µM; in the assay on HOP-62 NSCLC, 14.2 µM; in the assay on HT29 colon, 17.6 µM; with MDA-MB-231 breast, 13.6 µM; in the assay on NCI-H522 lung, 6.37 µM. The GI50 with SK-MEL-28 melanoma was above 25 µM; in the assay with SNB-75 CNS, 6.8 µM. Moreover, the TGI in the assay with CCRF-CEM leukemia, in the assay with HL-60(TB) leukemia, in the assay on HOP-62 NSCLC, in the assay on HT29 colon, with MDA-MB-231 breast and in the assay with NCI-H522 lung was above 25 µM in each case. Besides, the TGI in the assay with SK-MEL-28 melanoma and in the assay on SNB-75 CNS was above 25 µM each time.

On to `CC(C)(O)/C=C/C(=O)[C@](C)(O)[C@H]1[C@H](O)C[C@@]2(C)[C@@H]3CC=C4[C@@H](C[C@H](O)C(=O)C4(C)C)[C@]3(C)C(=O)C[C@]12C`, for which the GI50 in the assay on CCRF-CEM leukemia is 0.0462 µM; in the assay on HOP-62 NSCLC, 0.337 µM; with HT29 colon, 0.0623 µM; in the assay on NCI-H23 lung, 0.462 µM; in the assay on NCI-H522 lung, 0.069 µM; in the assay on SK-MEL-28 melanoma, 0.028 µM. In addition, the GI50 in the assay with SNB-75 CNS is 0.0496 µM. The TGI was 0.62 µM and 3.04 µM in the assay on CCRF-CEM leukemia; 0.687 µM and 1.68 µM with HL-60(TB) leukemia; 0.699 µM and 0.547 µM with HOP-62 NSCLC; 18.3 µM in the assay on HT29 colon; 15.5 µM in the assay on NCI-H23 lung; 0.453 µM and 0.775 µM in the assay on NCI-H522 lung. The TGI in the assay on SK-MEL-28 melanoma was 0.0828 µM and 0.432 µM.
